Data published in US6992078B2, “Plant extracts and alkaloids having antitussive activity” (The Chinese University of Hong Kong, priority 2002, dated 2006).
“Also recorded” adds a separate entry of the source.

Columns and labels:
δ2-opioid receptor = δ2-opioid receptor (Homo sapiens, UniProt P41143); experiment: Radiolabeled ligand binding assay, [3H]Naltrindole; conditions: 10 μM, Opioid δ2, Human recombinant
Protocol: (§1) The representative Stemona alkaloid, compound A, was subjected to the following primary receptor binding assays. The standard radiolabeled ligand binding experiments were performed at the concentration of 10 μM in duplicate by Novascreen Biosciences Crop. (7170 Standard Drive, Hanover, Md. 21076, USA). The tested receptors included all currently well-known receptors involved in producing the antitussive activity, for example, [^3H]Deltorphin (δ1-opioid receptor), [^3H]Naltrindole (δ2-opioid receptor), [^3H]DAMGO (μ-opioid receptor), [^3H]U69593 (κ1-opioid receptor), […] (GABAB receptor), [^3H]8-OH-DPAT (5HT1A receptor), and […] (Dopamine D2-receptor). […] Therefore, the results obtained from both in vivo and in vitro studies confirmed that the antitussive activity of all five effective novel Stemona alkaloids and neotuberostemonine are not involved in opiate receptor pathways.

5HT1A receptor = experiment: Radiolabeled ligand binding assay, [3H]8-OH-DPAT; conditions: 10 μM, Bovine hippocampus
Protocol: as §1

μ-opioid receptor = target: T1, μ-opioid receptor (Rattus norvegicus, UniProt P33535); experiment: Radiolabeled ligand binding assay, [3H]DAMGO; conditions: 10 μM, Rat forebrain
T1 construct: Novascreen Biosciences (contract assay)
T1 sequence (P33535 whole entry): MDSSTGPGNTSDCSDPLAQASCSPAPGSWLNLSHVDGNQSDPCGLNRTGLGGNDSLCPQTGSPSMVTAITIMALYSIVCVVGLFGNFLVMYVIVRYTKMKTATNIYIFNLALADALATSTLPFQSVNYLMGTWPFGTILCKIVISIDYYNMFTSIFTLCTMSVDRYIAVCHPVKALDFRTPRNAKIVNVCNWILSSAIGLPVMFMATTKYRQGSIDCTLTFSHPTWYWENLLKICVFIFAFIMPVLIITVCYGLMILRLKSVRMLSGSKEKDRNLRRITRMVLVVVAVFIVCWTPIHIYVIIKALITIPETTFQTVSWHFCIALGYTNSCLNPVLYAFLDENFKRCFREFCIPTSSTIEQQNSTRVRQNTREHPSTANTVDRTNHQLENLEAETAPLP
Protocol: as §1

[1] = system: citric acid-induced cough; experiment: Citric acid-induced cough in guinea pigs (antitussive activity); format: in vivo, guinea pig; conditions: for cough episodes (result in words): citric acid-induced cough; for ED50 value (antitussive): comparative study compound A vs codeine (positive control), i.p.; for rank order of antitussive potency: guinea pig citric acid cough model; for % Cough Episode (Composed with Vehicle Control): mean ± SEM
Protocol: In another embodiment, a method is provided for screening for a substance that inhibits coughing activity. For example, a guinea pig is challenged with 0.5 M citric acid. Those producing more than 10 cough episodes during a first citric acid challenge are selected to be sensitive to citric acid induction and are used for further antitussive tests. The number of coughs and the cough latency in the first challenge animal are recorded as the basal level control. After 48 hours of recovery, the sensitive guinea pigs are selected and are randomly divided into different group, and then pretreated with either intraperitoneal or oral administration. For the intraperitoneal administration, the administration can be of a aqueous extract (0.3-3 g/kg), a total alkaloid extract (25-150 mg/kg), an alkaloid, for example compound A (10, 30, 50, and 100 mg/kg), or compounds B, C, D, F, G, H (133 μmol/kg), for 30 min, or of an extract suspected of having antitussive activity. For the oral administration, the administration can be of compound A or E (400 μmol/kg) for 60 min, or of an extract suspected of having antitussive activity. A second citric acid exposure is then conducted. Antitussive activity is evaluated in each treated animal as the reduction of coughs and the increase of cough latency, as compared to the basal level control.
The method previously described by Gallico et al. (1994) was adopted with the following modifications. Unrestrained guinea pigs were placed individually in a hermetically sealed transparent Perspex chamber (25 cm×12 cm×12 cm), and exposed to a nebulized aqueous solution of 0.5 M citric acid for 8 min. An ultrasonic nebulizer was used (OMRON NE-U12, Tokyo, Japan) that produced an aerosol with particles having a mass median diameter of 1˜5 μm. Approximately 0.5 ml of 0.5 M citric acid solution was nebulized per minute. During the exposure, the guinea pigs were continuously monitored by a trained observer. The episodes and latency of coughing in 8 min were detected and counted by the observer. Cough sounds were recorded concurrently and amplified via a microphone placed in the chamber. The sound waves were analyzed by a personal computer by using Cool Edit 2000 software (Syntrillium, Phenix, USA). Therefore, cough counting was performed based on both acoustic data and human observations, and in this manner the reduction or inhibition of coughing (i.e., antitussive activity) was measured.
The guinea pigs were first challenged with 0.5 M citric acid. Those producing more than 10 cough episodes during the first citric acid challenge were selected to be sensitive to citric acid induction and were used for the further antitussive tests. The number of coughs and the cough latency in the first challenge were recorded as the basal level control. After 48 hours of recovery, the sensitive guinea pigs were selected and were randomly divided into different groups with at least four guinea pigs in each group, and then pretreated with intraperitoneal administration of the aqueous extract (0.3-3 g/kg), the total alkaloid extract (25-150 mg/kg), compound A (10, 30, 50, and 100 mg/kg), and compounds B, C, D, F, G, H (133 μmol/kg), for 30 min before the second citric acid exposure. Antitussive activity was evaluated in each treated animal as the reduction of coughs and the increase of cough latency, as compared to the basal level control. Furthermore, the same antitussive test was also performed with oral administration of compounds A and E (400 μmol/kg). In addition, as a positive control, the antitussive activity of codeine (5, 10 and 30 mg/kg, i.p.) was also determined in a parallel study.

[2] = system: all receptors examined (opioid δ1, δ2, κ, μ, GABAB, 5-HT1A, Dopamine D2); experiment: In vitro receptor binding assays, summary over all receptors examined; conditions: 10 μM, radiolabeled ligand binding
Protocol: as §1

GABAB receptor = target: T2, GABAB receptor (Rattus norvegicus, UniProt Q9Z0U4); experiment: Radiolabeled ligand binding assay, [3H]CGP 54626A; conditions: 10 μM, Rat cortex
T2 construct: Novascreen Biosciences (contract assay)
T2 sequence (Q9Z0U4 17-960 limits assumed): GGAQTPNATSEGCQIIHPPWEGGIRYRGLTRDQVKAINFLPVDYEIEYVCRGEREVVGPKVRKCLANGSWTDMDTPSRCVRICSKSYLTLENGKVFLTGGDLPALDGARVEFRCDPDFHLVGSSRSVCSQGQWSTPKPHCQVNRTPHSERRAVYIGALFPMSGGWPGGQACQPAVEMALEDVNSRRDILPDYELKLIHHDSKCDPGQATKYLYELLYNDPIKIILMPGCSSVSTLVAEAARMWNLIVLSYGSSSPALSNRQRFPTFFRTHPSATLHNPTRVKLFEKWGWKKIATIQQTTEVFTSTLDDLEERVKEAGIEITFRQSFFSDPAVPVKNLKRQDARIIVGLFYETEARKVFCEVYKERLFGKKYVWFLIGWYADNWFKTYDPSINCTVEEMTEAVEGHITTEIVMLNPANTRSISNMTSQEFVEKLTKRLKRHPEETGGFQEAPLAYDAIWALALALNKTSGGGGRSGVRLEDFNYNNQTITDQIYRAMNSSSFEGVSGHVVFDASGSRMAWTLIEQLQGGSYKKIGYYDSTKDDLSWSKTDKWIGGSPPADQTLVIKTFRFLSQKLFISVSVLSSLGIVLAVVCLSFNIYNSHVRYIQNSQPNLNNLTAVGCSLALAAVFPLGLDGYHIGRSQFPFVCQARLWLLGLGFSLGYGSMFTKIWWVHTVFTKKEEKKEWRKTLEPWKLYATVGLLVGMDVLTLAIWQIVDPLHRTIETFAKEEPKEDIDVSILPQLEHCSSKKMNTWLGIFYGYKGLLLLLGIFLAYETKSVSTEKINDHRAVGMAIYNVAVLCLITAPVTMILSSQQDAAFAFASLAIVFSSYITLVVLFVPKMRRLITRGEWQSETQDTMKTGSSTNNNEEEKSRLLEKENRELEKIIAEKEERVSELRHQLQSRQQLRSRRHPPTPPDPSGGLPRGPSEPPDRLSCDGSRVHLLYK
T2 sequence (O88871 41-940 partner): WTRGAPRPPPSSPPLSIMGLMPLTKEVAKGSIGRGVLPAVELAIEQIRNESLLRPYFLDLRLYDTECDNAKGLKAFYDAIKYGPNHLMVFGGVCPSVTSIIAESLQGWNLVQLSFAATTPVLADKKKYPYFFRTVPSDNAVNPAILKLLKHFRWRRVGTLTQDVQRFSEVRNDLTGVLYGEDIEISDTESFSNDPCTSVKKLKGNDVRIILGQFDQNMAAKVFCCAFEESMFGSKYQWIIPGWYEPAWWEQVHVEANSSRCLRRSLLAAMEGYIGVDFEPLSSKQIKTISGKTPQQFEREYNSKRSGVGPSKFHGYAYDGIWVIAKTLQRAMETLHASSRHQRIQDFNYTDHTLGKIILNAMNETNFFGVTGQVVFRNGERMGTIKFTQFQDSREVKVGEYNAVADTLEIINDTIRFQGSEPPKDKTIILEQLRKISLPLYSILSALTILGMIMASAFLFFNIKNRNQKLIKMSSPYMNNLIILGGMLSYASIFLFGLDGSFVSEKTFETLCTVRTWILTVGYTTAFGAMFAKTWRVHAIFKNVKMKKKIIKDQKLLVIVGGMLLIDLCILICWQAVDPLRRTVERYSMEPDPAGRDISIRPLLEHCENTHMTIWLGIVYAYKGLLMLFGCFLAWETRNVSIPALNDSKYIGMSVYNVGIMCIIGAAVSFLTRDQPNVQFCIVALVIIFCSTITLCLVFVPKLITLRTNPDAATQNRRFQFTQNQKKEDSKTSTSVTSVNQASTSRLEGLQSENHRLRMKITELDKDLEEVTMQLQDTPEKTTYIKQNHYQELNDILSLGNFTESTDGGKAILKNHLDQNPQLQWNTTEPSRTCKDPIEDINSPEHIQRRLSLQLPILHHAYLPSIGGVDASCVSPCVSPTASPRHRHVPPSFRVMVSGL
Protocol: as §1

κ1-opioid receptor = target: T3, κ1-opioid receptor (Cavia porcellus, UniProt P41144); experiment: Radiolabeled ligand binding assay, [3H]U-69593; conditions: 10 μM, Opioid κ, Guinea pig cerebellum
T3 construct: Novascreen Biosciences (contract assay)
T3 sequence (P41144 whole entry): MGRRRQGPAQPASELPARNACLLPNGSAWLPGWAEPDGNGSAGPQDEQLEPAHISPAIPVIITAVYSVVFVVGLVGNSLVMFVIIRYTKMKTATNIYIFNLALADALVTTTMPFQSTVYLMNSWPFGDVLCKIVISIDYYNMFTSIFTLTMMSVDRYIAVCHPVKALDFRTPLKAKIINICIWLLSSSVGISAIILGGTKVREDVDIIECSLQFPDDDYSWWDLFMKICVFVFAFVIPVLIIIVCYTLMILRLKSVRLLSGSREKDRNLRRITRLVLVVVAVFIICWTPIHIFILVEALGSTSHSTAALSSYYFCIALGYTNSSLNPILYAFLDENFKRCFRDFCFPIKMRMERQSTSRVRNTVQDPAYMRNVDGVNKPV
Protocol: as §1

δ1-opioid receptor = target: T4, δ1-opioid receptor (Rattus norvegicus, UniProt P33533); experiment: Radiolabeled ligand binding assay, [3H]Deltorphin; conditions: 10 μM, Opioid δ1, Rat forebrain, [3H]Deltrophin
T4 construct: Rat forebrain; tissue Novascreen Biosciences (contract assay); host or cells: rat forebrain
T4 sequence (P33533 whole entry): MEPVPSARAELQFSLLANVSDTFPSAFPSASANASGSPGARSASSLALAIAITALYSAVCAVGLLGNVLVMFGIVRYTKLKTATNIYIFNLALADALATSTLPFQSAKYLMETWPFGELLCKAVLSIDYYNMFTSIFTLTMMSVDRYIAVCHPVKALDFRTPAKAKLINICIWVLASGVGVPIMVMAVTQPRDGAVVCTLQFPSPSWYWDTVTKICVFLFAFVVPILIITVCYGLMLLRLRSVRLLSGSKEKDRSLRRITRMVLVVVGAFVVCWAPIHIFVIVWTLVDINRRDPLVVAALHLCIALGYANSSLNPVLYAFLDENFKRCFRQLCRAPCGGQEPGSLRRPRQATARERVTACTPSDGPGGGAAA
Protocol: as §1

[3] = system: citric acid-induced cough; experiment: Effect of receptor antagonists on the antitussive activity of compound A in vivo; set-up: species or system guinea pig; conditions: mean ± SEM
Protocol: Further studies were conducted for the delineation of the mechanisms of antitussive activity produced by the representative Stemona alkaloid, compound A. Similarly, the sensitive animals were selected after the first citric acid challenge and allowed to recover for 24 hours. During the second challenge, animals were treated with a subcutaneous injection of different antagonists at different times prior to intraperitoneal administration of compound A (50 or 100 mg/kg). The antagonists examined included SCH 50911 (GABAB receptor antagonist) with a 40 min pretreatment at a dose of 10 mg/kg, WAY-100635 (5-HT1A receptor antagonist) with a 60 min pretreatment at a dose of 1 mg/kg, and haloperidol (Dopamine, D2 receptor antagonist) with a 45 min pretreatment at a dose of 1 mg/kg. In addition, naloxone (nonselective opioid receptor antagonist) was administered subcutaneously at a dose of 5 mg/kg at 20 min after intraperitoneal administration of compound A (30 and 100 mg/kg). The effects of these antagonists on the antitussive activity of compound A were assessed by comparison of the changes in cough episodes and cough latency between animal groups administrated with compound A alone and concurrent administration of compound A and each antagonist tested. Furthermore, in a parallel study, the same treatment with naloxone was also conducted in the animals pretreated with intraperitoneal administration of codeine (30 mg/kg) for the positive control.

Dopamine D2-receptor = experiment: Radiolabeled ligand binding assay, [3H]Glibenclamide; set-up: species or system Rat; key to Affinity: ± indicates slight but not significant inhibition on ligand binding; conditions: 10 μM, Dopamine D2, Rate striatum
Protocol: as §1

[4] = ip, 133 μmol/kg, 30 min before second citric acid exposure, guinea pig
[5] = po, 400 μmol/kg, 60 min before second citric acid exposure, guinea pig

δ2-opioid receptor, sequence (P41143 whole entry): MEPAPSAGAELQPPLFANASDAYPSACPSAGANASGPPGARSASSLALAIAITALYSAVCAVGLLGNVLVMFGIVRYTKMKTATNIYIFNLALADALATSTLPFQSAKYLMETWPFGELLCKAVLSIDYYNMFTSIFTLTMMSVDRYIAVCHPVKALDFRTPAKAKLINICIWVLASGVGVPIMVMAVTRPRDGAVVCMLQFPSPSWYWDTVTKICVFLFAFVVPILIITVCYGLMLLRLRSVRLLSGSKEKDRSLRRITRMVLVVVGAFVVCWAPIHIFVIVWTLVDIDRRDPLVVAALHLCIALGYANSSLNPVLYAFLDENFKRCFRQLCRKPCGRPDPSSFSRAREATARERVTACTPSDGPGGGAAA

CC[C@@H]1[C@H]2CCCCN3[C@H]2[C@@H](C[C@H]3[C@@H]2C[C@H](C)C(=O)O2)[C@H]2[C@@H]1OC(=O)[C@H]2C [Compound A, Neotuberostemonine]
Affinity (δ2-opioid receptor): No | % Inhibition of Ligand Binding (average) (δ2-opioid receptor; duplicate): 8.32% | Affinity (5HT1A receptor): No | % Inhibition of Ligand Binding (average) (5HT1A receptor; duplicate): −18.42% | Affinity (μ-opioid receptor): No | % Inhibition of Ligand Binding (average) (μ-opioid receptor; duplicate): 7.37% | cough episodes (result in words) ([1]; guinea pig): inhibited citric acid-induced cough in a dose-dependent manner; also recorded: significantly inhibited cough episodes in a dose-dependent manner | ED50 value (antitussive) ([1]; guinea pig): comparable | cough latency ([1]; doses of 50 and 100 mg/kg, intraperitoneal, guinea pig): significantly increased | rank order of antitussive potency [1]: A=D>C≈F≈H≈B | % Cough Episode (Composed with Vehicle Control) [1, 4]: 16.1 ± 7.3% | % Cough Episode (Composed with Vehicle Control) [1, 5]: 21.7 ± 8.9% | affinity to all receptors examined (in words) [2]: did not show any affinity | Affinity (GABAB receptor): No | % Inhibition of Ligand Binding (average) (GABAB receptor; duplicate): 8.06% | Affinity (κ1-opioid receptor): No | % Inhibition of Ligand Binding (average) (κ1-opioid receptor; duplicate): 14.40% | % Inhibition of Ligand Binding (average) (δ1-opioid receptor; duplicate): 5.95% | Affinity (δ1-opioid receptor): No | % Antitussive Activity of Compound A ([3]; with Haloperidol (Dopamine D2 antagonist) 1 mg/kg sc, 45 min pretreatment, compound A ip 50 or 100 mg/kg): 115.21 ± 7.05% | % Antitussive Activity of Compound A ([3]; with Naloxone (nonselective opioid antagonist) 5 mg/kg sc 20 min after compound A ip (30 and 100 mg/kg)): 86.51 ± 11.57% | % Antitussive Activity of Compound A ([3]; with SCH 50911 (GABAB antagonist) 10 mg/kg sc, 40 min pretreatment, compound A ip 50 or 100 mg/kg): 83.25 ± 16.73% | % Antitussive Activity of Compound A ([3]; with WAY-100635 (5-HT1A antagonist) 1 mg/kg sc, 60 min pretreatment, compound A ip 50 or 100 mg/kg): 100.50 ± 1.67% | Affinity (Dopamine D2-receptor): ± | % Inhibition of Ligand Binding (average) (Dopamine D2-receptor; duplicate): 33.39%

CC[C@@H]1[C@@H]2CCCCN3[C@@H]2[C@@H](C[C@H]3[C@@H]2C[C@H](C)C(=O)O2)[C@H]2[C@@H]1OC(=O)[C@H]2C [Compound B, Tuberostemonine J]
cough episodes (result in words) ([1]; guinea pig): marked reduction of cough episodes | rank order of antitussive potency [1]: A=D>C≈F≈H≈B | % Cough Episode (Composed with Vehicle Control) [1, 4]: 76.3 ± 14.7 (ip) %

CC[C@@H]1[C@H]2CCCCN3[C@@H]2[C@@H](C[C@H]3[C@@H]2C[C@H](C)C(=O)O2)[C@H]2[C@@H]1OC(=O)[C@H]2C [Compound C, Tuberostemonine H]
cough episodes (result in words) ([1]; guinea pig): marked reduction of cough episodes | rank order of antitussive potency [1]: A=D>C≈F≈H≈B | % Cough Episode (Composed with Vehicle Control) [1, 4]: 50.7 ± 16.6 (ip) %

CC[C@@H]1[C@H]2CCCCN3CC[C@@H]([C@H]4[C@@H]1OC(=O)[C@H]4C)[C@@H]23 [Compound D, Neostenine]
cough episodes (result in words) ([1]; guinea pig): significantly inhibited cough episodes in a dose-dependent manner | rank order of antitussive potency [1]: A=D>C≈F≈H≈B | % Cough Episode (Composed with Vehicle Control) [1, 4]: 29.9 ± 8.3 (ip) %

CC[C@H]1[C@H]2OC(=O)[C@@H](C)[C@H]2c2cc([C@H]3C[C@H](C)C(=O)O3)n3c2[C@H]1CCCC3 [Compound E, Epibisdehydrotuberostemonine J]
% Cough Episode (Composed with Vehicle Control) [1, 5]: 136.8 ± 25.6 (po) %

CC[C@@H]1[C@H]2CCCCN3CC[C@@H]([C@H]4[C@@H]1OC[C@H]4C)[C@@H]23 [Compound H, Neostenine-ether]
cough episodes (result in words) ([1]; guinea pig): marked reduction of cough episodes | rank order of antitussive potency [1]: A=D>C≈F≈H≈B | % Cough Episode (Composed with Vehicle Control) [1, 4]: 54.4 ± 10.6 (ip) %

COc1ccc2c3c1O[C@H]1[C@@H](O)C=C[C@H]4[C@@H](C2)N(C)CC[C@@]341 [codeine, reference compound]
ED50 value (antitussive) ([1]; guinea pig): comparable

Neostenine-acid [Compound G]
% Cough Episode (Composed with Vehicle Control) [1, 4]: 104.5 ± 20.4 (ip) %

Neostenine-diol [Compound F]
cough episodes (result in words) ([1]; guinea pig): marked reduction of cough episodes | rank order of antitussive potency [1]: A=D>C≈F≈H≈B | % Cough Episode (Composed with Vehicle Control) [1, 4]: 62.2 ± 10.8 (ip) %
